Measured values taken from publication PMC8175240, “Integrase-derived peptides together with CD24-targeted lentiviral particles inhibit the growth of CD24 expressing cancer cells” (Oncogene, 2021).
In brackets after ≈: the same amount, converted by molar mass. Residues, ends and D or L forms follow the SMILES beside them.

Columns and labels:
[1] = Stability test in rat plasma; type: in vitro ADME; settings: for Analyte Remaining %: 10 mg/ml stock into plasma 1:1, LC-MS; for Concentration calculated from LC-MS data: 10 mg/ml stock into plasma 1:1, methanol precipitation, 0.45 µm filtration
Description: (§1) Analytic HPLC-MS was performed using an Agilent 1260 series Liquid Chromatography/Mass Selective Detector (MSD) equipped with an electrospray interface and a UV diode array detector. Analyses were performed on an ACE C8, 50 × 3.0 mm, 3 µm column, with an isocratic 0.1% formic acid/ACN eluent, at a rate of 1 ml/min over a period of 5 min. UV absorption was measured at 280 nm, 220 nm, and 215–395 nm. MS analysis was performed with ESI (electron spray ionization) with a positive ionization method.
(§2) Four reaction systems were prepared; INS and INR2 in human plasma, INS and INR2 in rat plasma (Supplementary Table 2). Freshly prepared 10 mg/ml stock solution of the peptides was injected into plasma or PBS solution (1:1). The mixture was diluted with methanol to precipitate the plasma proteins. The samples were filtered through PTFE 0.45 µm filters and run in LC-MS. Samples were taken at the following times: 0, 15, 30, 60, 120, 240, and 480 min and after 24 h.

[2] = system: H1975 lung cancer cells; experiment: Cytotoxicity of peptides without lentiviral particles, MTT; type: cell-based, human; settings: peptide alone, three times over ten days
Description: H1975 lung cancer cells were treated three times over the course of 10 days (on days 2, 4, and 7) with different concentrations of the tested peptides. Following ten days of incubation, cells were analyzed for potential toxicity using a quantitative cell viability test, the MTT assay.

[3] = Solubility of IN-derived peptides in rat plasma; type: physicochemical; settings: LC-MS
Description: as §1, §2
(§3) Plasma solubility was determined at 0 min and was verified at 60 min (if no degradation was observed).

[4] = Solubility of IN-derived peptides in PBS; type: physicochemical; settings: for Solubility: at 0 min, verified at 60 min, LC-MS
Description: as §1, §2, §3

[5] = Solubility of IN-derived peptides in human plasma; type: physicochemical; settings: LC-MS
Description: as §1, §2, §3

[6] = Stability test in human plasma; type: in vitro ADME; settings: for Analyte Remaining % / Concentration calculated from LC-MS data: human plasma, 10 mg/ml stock into plasma 1:1, LC-MS; for Concentration calculated from LC-MS data: methanol precipitation, 0.45 µm filtration
Description: as §1, §2

[7] = system: CD24 expressing cancer cells; type: cell-based, human; settings: abstract
[8] = system: H1975 lung cancer cells; experiment: Microscopic observation of GFP incorporation; type: cell-based, human; settings: 30 MOI LV-CD24 and 25 µM INS with 50 µM Raltegravir; 24 h post-treatment
Description: Fig. 2 The effect of IN-derived peptides on cell survival. A Schematic illustration of the treatment protocol. B Microscopic observation of the GFP incorporation inhibition by Raltegravir. H1975 lung cancer cells were exposed to 30 MOI LV-CD24 and 25 µM INS with or without the addition of 50 µM Raltegravir. Images were taken 24 h post-treatment. C 2000 Panc-1 (left) and H1975 (right) cells were seeded in 96-well plates and were treated with the different items as described. Cell survival was measured by the enzymatic WST-1 (left) and MTT assays (right). % Survival was calculated as the percentage of living cells remaining after treatment with respect to non-treated cells.

[9] = system: Panc-1 cells; experiment: Cell survival after CD24-targeted lentivirus plus peptide, WST-1; type: cell-based, human; settings: Raltegravir added to LV-CD24 plus INS or INR2
Description: (§4) The cell-killing effect of the system was measured by the MTT3-(4,5-dimethylthiazol-2-yl)-2,5-diphenyltetrazoliumenzymatic assay or by 2-(4-iodophenyl)-3-(4-nitrophenyl)-5-(2,4-disulfophenyl)-2H-tetrazolium (WST-1) assay. Two thousand cultured cells were seeded onto 96-well plates (in culture media, DMEM, or RPMI). After 24 h, different concentrations of the diverse peptides (and inhibitors) were added for 3 h. Thirty MOI of the targeted lentiviral particles were added to the cells and the plates centrifuged for 90 min at 800×g, 20 °C. Three and six days later, this procedure (peptides/inhibitor and LV treatments) was repeated. On the tenth day, cell viability was analyzed either by MTT or by WST-1; the media was replaced by fresh media (100 μl per well) containing 1 mg/ml MTT, and the cells were incubated for 2–4 more hours. MTT-formazan crystals were dissolved by the addition of extraction solution (0.1 N HCl in absolute isopropanol). Absorbance at 570 nm and a reference wavelength of 690 nm was recorded on an automated microplate reader. For WST-1, media was replaced and WST-1 was added directly to the culture wells followed by incubation of 10–60 min at 37 °C. Plates were read by an automated microplate reader by measuring the absorbance of the dye with a wavelength of 450 nm and a reference wavelength of 630 nm.

[10] = system: H1975 cells; experiment: Cell survival after CD24-targeted lentivirus plus peptide, MTT; type: cell-based, human; settings: Raltegravir added to LV-CD24 plus INS or INR2
Description: as §4

[11] = system: CHO-WBL cells; experiment: Chromosomal aberration assay (genotoxicity); type: cell-based, Chinese hamster; settings: CP 2.5, +S9, 3 h treatment, harvest 22 h
Description: All cells were cultured for 22 h after initiation of INS treatment.

[12] = from 5 mg/mL sample (10 mg/ml stock into plasma 1:1), at 0 min, verified at 60 min, methanol precipitation, PTFE 0.45 µm filtration

With `CC(C)[C@H](NC(=O)[C@@H](NC(=O)[C@@H](NC(=O)[C@H](CO)NC(=O)[C@@H](NC(=O)[C@H](Cc1ccccc1)NC(=O)[C@H](CC(N)=O)NC(=O)[C@H](CO)NC(=O)CNC(=O)[C@@H](N)Cc1c[nH]c2ccccc12)[C@@H](C)O)[C@@H](C)O)[C@@H](C)O)C(=O)N[C@@H](CCCCN)C(=O)N[C@@H](C)C(=O)O` [INR] (H-WGSNFTSTTVKA-OH) the “Analyte Remaining %” value ([1]; 0 h) was 41.8%, the “Concentration calculated from LC-MS data” value ([1]; 0 h) was 2.09 mg/mL and the “Analyte Remaining %” value ([1]; 0.25 h) was 51.1%. For the same molecule, the “Concentration calculated from LC-MS data” value ([1]; 0.25 h) was 2.56 mg/mL, the “Analyte Remaining %” value ([1]; 0.5 h) was 34.3% and the “Concentration calculated from LC-MS data” value ([1]; 0.5 h) was 1.71 mg/mL. For the same molecule, the “Analyte Remaining %” value ([1]; 1 h) was 43.5%, the “Concentration calculated from LC-MS data” value ([1]; 1 h) was 2.17 mg/mL and the “Analyte Remaining %” value ([1]; 2 h) was 43.6%. For the same molecule, the “Concentration calculated from LC-MS data” value ([1]; 2 h) was 2.18 mg/mL, the “Analyte Remaining %” value ([1]; 4 h) was 38.2% and the “Concentration calculated from LC-MS data” value ([1]; 4 h) was 1.91 mg/mL. The “Analyte Remaining %” value ([1]; 8 h) was 35.3%, the “Concentration calculated from LC-MS data” value ([1]; 8 h) was 1.76 mg/mL and the “Analyte Remaining %” value ([1]; 24 h) was 36.9%. For the same molecule, the “Concentration calculated from LC-MS data” value ([1]; 24 h) was 1.84 mg/mL, the “Effect on lung cancer cell viability” value [2] was “no effect” and the Solubility ([3]; % of 5 mg/mL sample) was 42.6%. It also gave a Solubility [3, 12] of 2.13 mg/mL (≈ 1640 µM), a Solubility ([4]; % of 5 mg/mL sample) of 66.2% and a Solubility ([4]; from 5 mg/mL sample (10 mg/ml stock into PBS 1:1), methanol dilution, PTFE 0.45 µm filtration) of 3.31 mg/mL (≈ 2550 µM). The “Solubility (in words)” value ([4]; rat and human plasma) was “highly soluble”, the Solubility ([5]; % of 5 mg/mL sample) was 44.2% and the Solubility [5, 12] was 2.21 mg/mL (≈ 1700 µM). The “Stability” value ([6]; both types of sera (rat and human plasma), for the entire 24 h) was 40%, the “Analyte Remaining %” value ([6]; 0 h) was 40.9% and the “Concentration calculated from LC-MS data” value ([6]; 0 h) was 2.05 mg/mL. For the same molecule, the “Analyte Remaining %” value ([6]; 0.25 h) was 40.3%, the “Concentration calculated from LC-MS data” value ([6]; 0.25 h) was 2.02 mg/mL and the “Analyte Remaining %” value ([6]; 0.5 h) was 45.3%. The “Concentration calculated from LC-MS data” value ([6]; 0.5 h) was 2.27 mg/mL, the “Analyte Remaining %” value ([6]; 1 h) was 47.3% and the “Concentration calculated from LC-MS data” value ([6]; 1 h) was 2.37 mg/mL. The “Analyte Remaining %” value ([6]; 2 h) was 39.2%, the “Concentration calculated from LC-MS data” value ([6]; 2 h) was 1.96 mg/mL and the “Analyte Remaining %” value ([6]; 4 h) was 41.2%. For the same molecule, the “Concentration calculated from LC-MS data” value ([6]; 4 h) was 2.06 mg/mL, the “Analyte Remaining %” value ([6]; 8 h) was 38.3% and the “Concentration calculated from LC-MS data” value ([6]; 8 h) was 1.91 mg/mL. The “Analyte Remaining %” value ([6]; 24 h) was 38.9%, the “Concentration calculated from LC-MS data” value ([6]; 24 h) was 1.95 mg/mL and the “Stability” value ([6]; rat and human plasma, ~4 h incubation) was 40%.
For `Cc1nnc(C(=O)NC(C)(C)c2nc(C(=O)NCc3ccc(F)cc3)c(O)c(=O)n2C)o1` [Raltegravir], the “Effect on induction of apoptosis” value [7] was “inhibited the induction of apoptosis”, the “Effect on GFP fluorescence of INS-treated cells” value [8] was “nearly eliminated” and the “Effect on cell death induced by LV plus peptide” value [9] was “successfully suppressed the observed cell death”. The “Effect on cell death induced by LV plus peptide” value [10] was “successfully suppressed the observed cell death”.
With `O=P1(N(CCCl)CCCl)NCCCO1` (stereo not shown) [CP, cyclophosphamide monohydrate, reference compound] the “% Gaps” value [11] was 4.0%, the “% Structural aberration without gaps” value [11] was 47.0% and the “Cells with endoreduplication (%)” value [11] was 3.0%. The “Cells with polyploidy (%)” value [11] was 0.0%, the “Cytotoxicity (%)” value ([11]; cell growth inhibition relative to negative control) was 50% and the “% Structural aberrant cells” value ([11]; cells with only gaps not included, *p ≤ 0.05 Fisher's Exact test) was 35.0* %.
